# Measurements as given in patent US20080200519A1, “TETRAHYDRONAPHTHALENYLAMIDES, A PROCESS FOR THEIR PRODUCTION AND THEIR USE AS ANTI-INFLAMMATORY AGENTS” (priority 2007, published 2008).
# pIC50: −log10 of the molar value.
# Assays:
# [1] = molecular target: T1, glucocorticoid receptor (GR) (Homo sapiens, UniProt P04150); assay: binding to recombinantly produced glucocorticoid receptor, cytosol preparations of Sf9 cells, [3H]-dexamethasone as reference; conditions: recombinant GR
# T1 construct: made in house; host or cells: Sf9 cells infected with recombinant baculovirus (cytosol preparation)
# T1 sequence (P04150 1-777): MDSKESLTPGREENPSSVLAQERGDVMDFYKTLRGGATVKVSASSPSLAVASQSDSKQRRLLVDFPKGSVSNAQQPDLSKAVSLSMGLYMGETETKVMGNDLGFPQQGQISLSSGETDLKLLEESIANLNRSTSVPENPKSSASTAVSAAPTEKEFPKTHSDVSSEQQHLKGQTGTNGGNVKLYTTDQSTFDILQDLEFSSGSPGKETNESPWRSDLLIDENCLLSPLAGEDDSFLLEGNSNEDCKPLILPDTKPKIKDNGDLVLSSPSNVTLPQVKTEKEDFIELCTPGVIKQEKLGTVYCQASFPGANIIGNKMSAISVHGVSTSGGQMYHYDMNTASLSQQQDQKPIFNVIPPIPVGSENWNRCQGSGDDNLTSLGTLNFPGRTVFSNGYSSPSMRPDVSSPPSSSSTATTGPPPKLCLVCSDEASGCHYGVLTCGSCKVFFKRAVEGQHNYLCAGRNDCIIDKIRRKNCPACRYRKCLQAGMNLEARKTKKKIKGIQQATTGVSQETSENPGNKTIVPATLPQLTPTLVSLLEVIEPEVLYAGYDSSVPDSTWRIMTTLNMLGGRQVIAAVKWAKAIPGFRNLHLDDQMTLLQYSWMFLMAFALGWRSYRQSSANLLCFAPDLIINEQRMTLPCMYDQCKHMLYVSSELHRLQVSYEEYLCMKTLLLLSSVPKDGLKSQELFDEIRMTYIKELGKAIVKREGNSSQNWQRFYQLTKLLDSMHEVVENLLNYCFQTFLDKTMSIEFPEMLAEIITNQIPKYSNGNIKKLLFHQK
# Description: (§1) The binding of the substances to the glucocorticoid receptor (GR) and other steroid hormone receptors (mineral corticoid receptor (MR), progesterone receptor (PR) and androgen receptor (AR)) is examined with the aid of recombinantly produced receptors. Cytosol preparations of Sf9 cells, which had been infected with recombinant baculoviruses, which code for the GR, are used for the binding studies. In comparison to reference substance [^3H]-dexamethasone, the substances show a high to very high affinity to GR.
# [2] = molecular target: T2, mineral corticoid receptor (MR) (Homo sapiens, UniProt P08235); assay: binding to recombinantly produced mineral corticoid receptor
# T2 construct: made in house
# T2 sequence (P08235 1-984): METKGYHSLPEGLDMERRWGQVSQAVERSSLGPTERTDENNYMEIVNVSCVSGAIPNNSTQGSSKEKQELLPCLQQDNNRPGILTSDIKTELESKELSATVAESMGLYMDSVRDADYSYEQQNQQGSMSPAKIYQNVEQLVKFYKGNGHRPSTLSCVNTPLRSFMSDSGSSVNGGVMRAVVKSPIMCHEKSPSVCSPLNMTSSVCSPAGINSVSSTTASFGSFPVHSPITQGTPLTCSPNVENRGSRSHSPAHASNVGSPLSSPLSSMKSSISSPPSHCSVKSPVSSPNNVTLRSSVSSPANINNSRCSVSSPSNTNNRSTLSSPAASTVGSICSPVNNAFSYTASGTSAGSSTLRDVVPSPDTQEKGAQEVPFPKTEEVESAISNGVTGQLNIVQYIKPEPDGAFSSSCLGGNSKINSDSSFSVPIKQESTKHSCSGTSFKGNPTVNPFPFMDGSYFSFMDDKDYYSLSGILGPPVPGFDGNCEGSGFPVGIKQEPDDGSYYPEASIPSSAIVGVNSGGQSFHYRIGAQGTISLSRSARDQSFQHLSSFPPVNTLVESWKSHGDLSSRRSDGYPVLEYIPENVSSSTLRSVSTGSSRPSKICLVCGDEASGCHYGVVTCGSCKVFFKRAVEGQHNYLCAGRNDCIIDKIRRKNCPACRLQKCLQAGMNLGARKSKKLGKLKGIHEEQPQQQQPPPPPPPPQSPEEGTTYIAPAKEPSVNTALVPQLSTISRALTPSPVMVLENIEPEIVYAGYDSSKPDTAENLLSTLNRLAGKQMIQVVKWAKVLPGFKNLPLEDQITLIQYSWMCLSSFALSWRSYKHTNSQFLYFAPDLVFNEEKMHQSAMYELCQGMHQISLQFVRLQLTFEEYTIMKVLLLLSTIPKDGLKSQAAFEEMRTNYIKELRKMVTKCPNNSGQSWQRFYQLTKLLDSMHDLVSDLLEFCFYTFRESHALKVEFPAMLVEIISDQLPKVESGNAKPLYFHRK
# Description: as §1
# [3] = molecular target: T3, progesterone receptor (PR) (Homo sapiens, UniProt P06401); assay: binding to recombinantly produced progesterone receptor
# T3 construct: made in house
# T3 sequence (P06401 1-933): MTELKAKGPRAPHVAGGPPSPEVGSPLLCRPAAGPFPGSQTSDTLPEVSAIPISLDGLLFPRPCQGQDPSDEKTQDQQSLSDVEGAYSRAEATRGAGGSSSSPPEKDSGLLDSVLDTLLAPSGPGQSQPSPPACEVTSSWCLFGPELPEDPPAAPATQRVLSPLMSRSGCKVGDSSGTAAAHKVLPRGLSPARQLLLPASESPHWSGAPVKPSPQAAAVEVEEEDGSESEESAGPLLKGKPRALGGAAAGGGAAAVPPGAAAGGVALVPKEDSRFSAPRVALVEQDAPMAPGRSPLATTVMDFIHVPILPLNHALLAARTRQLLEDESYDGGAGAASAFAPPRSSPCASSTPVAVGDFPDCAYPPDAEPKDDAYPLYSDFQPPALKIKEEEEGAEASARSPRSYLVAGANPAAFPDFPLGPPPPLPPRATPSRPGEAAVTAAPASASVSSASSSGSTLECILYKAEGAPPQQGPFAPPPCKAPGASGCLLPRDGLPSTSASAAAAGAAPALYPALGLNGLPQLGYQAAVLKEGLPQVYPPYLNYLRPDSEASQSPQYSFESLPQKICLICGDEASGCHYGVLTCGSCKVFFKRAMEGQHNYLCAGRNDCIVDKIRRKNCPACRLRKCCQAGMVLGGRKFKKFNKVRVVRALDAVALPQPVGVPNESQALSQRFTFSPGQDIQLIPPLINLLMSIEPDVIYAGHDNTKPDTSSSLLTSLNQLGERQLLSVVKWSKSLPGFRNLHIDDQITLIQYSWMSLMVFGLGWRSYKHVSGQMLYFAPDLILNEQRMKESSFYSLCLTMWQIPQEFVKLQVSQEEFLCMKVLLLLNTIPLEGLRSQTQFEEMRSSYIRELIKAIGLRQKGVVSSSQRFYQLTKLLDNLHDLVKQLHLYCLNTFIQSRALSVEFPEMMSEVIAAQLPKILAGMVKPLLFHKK
# Description: as §1
# androgen receptor (AR) = molecular target: T4, androgen receptor (AR) (Homo sapiens, UniProt P10275); assay: binding to recombinantly produced androgen receptor
# T4 construct: made in house
# T4 sequence (P10275 1-920): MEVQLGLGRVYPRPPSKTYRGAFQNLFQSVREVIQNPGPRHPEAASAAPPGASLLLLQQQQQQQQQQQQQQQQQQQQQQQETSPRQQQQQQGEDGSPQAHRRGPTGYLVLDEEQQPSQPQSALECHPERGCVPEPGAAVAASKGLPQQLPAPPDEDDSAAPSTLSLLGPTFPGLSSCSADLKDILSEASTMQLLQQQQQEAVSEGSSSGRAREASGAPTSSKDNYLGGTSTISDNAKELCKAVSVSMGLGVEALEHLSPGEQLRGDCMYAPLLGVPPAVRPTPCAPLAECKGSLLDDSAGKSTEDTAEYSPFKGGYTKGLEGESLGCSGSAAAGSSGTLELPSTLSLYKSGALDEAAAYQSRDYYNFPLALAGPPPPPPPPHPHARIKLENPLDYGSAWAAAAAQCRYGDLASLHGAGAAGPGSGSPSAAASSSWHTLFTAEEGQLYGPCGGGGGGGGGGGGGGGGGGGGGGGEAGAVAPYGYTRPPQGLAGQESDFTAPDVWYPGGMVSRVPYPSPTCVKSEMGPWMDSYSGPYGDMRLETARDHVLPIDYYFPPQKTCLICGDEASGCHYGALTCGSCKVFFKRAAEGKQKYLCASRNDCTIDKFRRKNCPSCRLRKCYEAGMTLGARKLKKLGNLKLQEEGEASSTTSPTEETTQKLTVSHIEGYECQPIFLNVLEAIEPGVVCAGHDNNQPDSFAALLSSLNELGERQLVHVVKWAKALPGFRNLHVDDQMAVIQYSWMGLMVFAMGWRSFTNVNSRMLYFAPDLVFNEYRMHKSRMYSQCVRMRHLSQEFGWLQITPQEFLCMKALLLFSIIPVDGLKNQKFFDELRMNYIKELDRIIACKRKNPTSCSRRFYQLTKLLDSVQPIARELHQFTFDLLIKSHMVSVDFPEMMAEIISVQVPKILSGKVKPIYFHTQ
# Description: as §1
# ER = assay: steroid receptor binding, ER
# [4] = test system: secretion of cytokine IL-8 in human monocyte cell line THP-1; assay: inhibition of LPS-triggered IL-8 secretion in THP-1 cells (ELISA); type: cell-based
# Experimental: The concentration of the cytokines was determined in the supernatant by means of commercially available ELISA kits.
compound,measurement,setting,value
"COc1c(F)ccc2c1C(C)(C)C[C@](O)(C(F)(F)F)[C@H]2NC(=O)c1cnn(-c2ccc(F)cc2F)c1N (relative stereo) [Example 3, 5-Amino-1-(2,4-difluorophenyl)-N-[(cis)-6-fluoro-1,2,3,4-tetrahydro-2-hydroxy-5-methoxy-4,4-dimethyl-2-(trifluoromethyl)naphthalene-1-yl]-1H-pyrazole-4-carboxamide]",pIC50,[1],8.22
same,pIC50,[2],< 6.00
same,pIC50,[3],< 6.00
same,pIC50,androgen receptor (AR),< 6.00
same,pIC50,ER,< 6.00
same,pIC50,"[4]; Homo sapiens, read-out: IC50(IL8)",8.15
same,eff. relative to dexamethasone,[4]; IL-8 inhibition,96%
